In this assay the target is nsp14 methyltransferase from SARS-CoV-2 (Severe acute respiratory syndrome coronavirus 2, UniProt P0DTD1). As to the kind of experiment: Nsp14 MTase activity inhibition in vitro (EchoMS assay). Type of assay: biochemical. Particulars: recombinant nsp14 protein expressed in E. coli; dose-response curve.

These results are taken from patent EP4553080A1, “NUCLEOSIDE DERIVATIVES AS ANTIVIRAL AGENTS AGAINST CORONAVIRUSES” (Ustav Organicke Chemie a Biochemie AV CR, v.v.i., priority 2023, dated 2025).

For `Cc1noc(-c2ccccc2)c1CSC[C@H]1O[C@@H](n2cc(-c3ccc(OC(F)(F)F)cc3)c3c(N)ncnc32)[C@H](O)[C@@H]1O` [Compound 146b, (2R,3R,4S,5S)-2-(4-Amino-5-(4-(trifluoromethoxy)phenyl)-7H-pyrrolo[2,3-d]pyrimidin-7-yl)-5-((((3-methyl-5-phenylisoxazol-4-yl)methyl)thio)methyl)tetrahydrofuran-3,4-diol], the IC50 is 100 to 500 nM.

Consider `Nc1ncnc2c1ccn2[C@@H]1O[C@H](CSCc2cnsc2-c2ccccc2)[C@@H](O)[C@H]1O` [Compound 103c, (2R,3R,4S,5S)-2-(4-Amino-7H-pyrrolo[2,3-d]pyrimidin-7-yl)-5-((((5-phenylisothlazol-4-yl)methyl)thio)methyl)tetrahydrofuran-3,4-diol], for which the IC50 lay in the range of 500 to 2000 nM.

`Cc1noc(-c2ccccc2)c1CSC[C@H]1O[C@@H](n2cc(C#Cc3ccc(C(N)=O)cc3)c3c(N)ncnc32)[C@H](O)[C@@H]1O` [Compound 169b, 4-((4-Amino-7-((2R,3R,4S,5S)-3,4-dihydroxy-5-((((3-methyl-5-phenylisoxazol-4-yl)methyl)thio)methyl)tetrahydrofuran-2-yl)-7H-pyrrolo[2,3-d]pyrimidin-5-yl)ethynyl)benzamide]: the IC50 is 30 to 100 nM.

For the compound `Cc1noc(-c2ccccc2)c1CSC[C@H]1O[C@@H](n2cc(C#Cc3ccccn3)c3c(N)ncnc32)[C@H](O)[C@@H]1O` [Compound 171b, (2R,3R,4S,5S)-2-(4-Amino-5-(pyridin-2-ylethynyl)-7H-pyrrolo[2,3-d]pyrimidin-7-yl)-5-((((3-methyl-5-phenylisoxazol-4-yl)methyl)thio)methyl)tetrahydrofuran-3,4-diol], the IC50 lay in the range of 10 to 30 nM.

With `Cc1onc(-c2ccccc2)c1CSC[C@H]1O[C@@H](n2ccc3c(N)ncnc32)[C@H](O)[C@@H]1O` [Compound 48c, (2R,3R,4S,5S)-2-(4-Amino-7H-pyrrolo[2,3-d]pyrimidin-7-yl)-5-((((5-methyl-3-phenylisoxazol-4-yl)methyl)thio)methyl)tetrahydrofuran-3,4-diol], the IC50 lay within 100 to 500 nM.

`Cn1cnc(-c2ccccc2)c1CSC[C@H]1O[C@@H](n2ccc3c(N)ncnc32)[C@H](O)[C@@H]1O` [Compound 49c]: the IC50 lay within 100 to 500 nM.

As for `Cc1ncnc(-c2ccccc2)c1CSC[C@H]1O[C@@H](n2cc(I)c3c(N)ncnc32)[C@H](O)[C@@H]1O` [Compound 246, (2R,3R,4S,5S)-2-(4-Amino-5-iodo-7H-pyrrolo[2,3-d]pyrimidin-7-yl)-5-((((4-methyl-6-phenylpyrimidin-5-yl)methyl)thio)methyl)tetrahydrofuran-3,4-diol], the IC50 fell in the range of 10 to 30 nM.

`Cc1nsc(-c2ccccc2)c1CSC[C@H]1O[C@@H](n2cc(C#Cc3cncnc3)c3c(N)ncnc32)[C@H](O)[C@@H]1O` [Compound 238c, (2R,3R,4S,5S)-2-(4-Amino-5-(pyrimidin-5-ylethynyl)-7H-pyrrolo[2,3-d]pyrimidin-7-yl)-5-((((3-methyl-5-phenylisothiazol-4-yl)methyl)thio)methyl)tetrahydrofuran-3,4-diol]: the IC50 was in the range of 30 to 100 nM.

As to `Nc1ncnc2c1ccn2[C@@H]1O[C@H](CSCc2c(-c3ccccc3)noc2C2CC2)[C@@H](O)[C@H]1O` [Compound 108c, (2R,3R,4S,5S)-2-(4-Amino-7H-pyrrolo[2,3-d]pyrimidin-7-yl)-5-((((5-cyclopropyl-3-phenylisoxazol-4-yl)methyl)thio)methyl)tetrahydrofuran-3,4-diol], the IC50 is 100 to 500 nM.

On to `Cc1noc(-c2ccccc2)c1CSC[C@H]1O[C@@H](n2cc(C#Cc3ccccc3)c3c(N)ncnc32)[C@H](O)[C@@H]1O` [Compound 180, (2R,3R,4S,5S)-2-(4-Amino-5-(phenylethynyl)-7H-pyrrolo[2,3-d]pyrimidin-7-yl)-5-((((3-methyl-5-phenylisoxazol-4-yl)methyl)thio)methyl)tetrahydrofuran-3,4-diol], for which the IC50 lay in the range of 30 to 100 nM.

Consider `Cc1ccc(-c2onc(C)c2CSC[C@H]2O[C@@H](n3cc(C#Cc4cncnc4)c4c(N)ncnc43)[C@H](O)[C@@H]2O)cc1C` [Compound 242c, (2R,3R,4S,5S)-2-(4-Amino-5-(pyrimidin-5-ylethynyl)-7H-pyrrolo[2,3-d]pyrimidin-7-yl)-5-((((5-(3,4-dimethylphenyl)-3-methylisoxazol-4-yl)methyl)thio)methyl)tetrahydrofuran-3,4-diol], for which the IC50 fell in the range of 10 to 30 nM.

For the compound `Cc1ncnc(-c2ccccc2)c1CSC[C@H]1O[C@@H](n2ccc3c(N)ncnc32)[C@H](O)[C@@H]1O` [Compound 56c, (2R,3R,4S,5S)-2-(4-Amino-7H-pyrrolo[2,3-d]pyrimidin-7-yl)-5-((((4-methyl-6-phenylpyrimidin-5-yl)methyl)thio)methyl)tetrahydrofuran-3,4-diol], the half-inhibitory concentration (IC50) was 100 to 500 nM.

Consider `Nc1ncnc2c1ccn2[C@@H]1O[C@H](CSCc2[nH]cnc2-c2ccccc2)[C@@H](O)[C@H]1O` [Compound 104c, (2R,3R,4S,5S)-2-(4-Amino-7H-pyrrolo[2,3-d]pyrimidin-7-yl)-5-((((4-phenyl-1H-imidazol-5-yl)methyl)thio)methyl)tetrahydrofuran-3,4-diol], for which the IC50 is 500 to 2000 nM.

Regarding `Cc1cccc(-c2ccccc2)c1CSC[C@H]1O[C@@H](n2ccc3c(N)ncnc32)[C@H](O)[C@@H]1O` [Compound 58c, (2R,3R,4S,5S)-2-(4-Amino-7H-pyrrolo[2,3-d]pyrimidin-7-yl)-5-((((3-methyl-[1,1'-biphenyl]-2-yl)methyl)thio)methyl)tetrahydrofuran-3,4-diol], the IC50 was in the range of 500 to 2000 nM.

Turning to `Cc1noc(-c2ccc3c(c2)OCO3)c1CSC[C@H]1O[C@@H](n2ccc3c(N)ncnc32)[C@H](O)[C@@H]1O` [Compound 96c, (2R,3R,4S,5S)-2-(4-Amino-7H-pyrrolo[2,3-d]pyrimidin-7-yl)-5-((((5-(benzo[d][1,3]dioxol-5-yl)-3-methylisoxazol-4-yl)methyl)thio)methyl)tetrahydrofuran-3,4-diol], the IC50 lay within 10 to 30 nM.

For `COc1ccc(-c2cn([C@@H]3O[C@H](CSCc4c(C)noc4-c4ccccc4)[C@@H](O)[C@H]3O)c3ncnc(N)c23)cc1OC` [Compound 147b], the IC50 was 10 to 30 nM.

Turning to `Cc1nsc(-c2ccccc2)c1CSC[C@H]1O[C@@H](n2ccc3c(N)ncnc32)[C@H](O)[C@@H]1O` [Compound 54c, (2R,3R,4S,5S)-2-(4-Amino-7H-pyrrolo[2,3-d]pyrimidin-7-yl)-5-((((3-methyl-5-phenylisothiazol-4-yl)methyl)thio)methyl)tetrahydrofuran-3,4-diol], the IC50 is 30 to 100 nM.

With `Cc1snc(-c2ccccc2)c1CSC[C@H]1O[C@@H](n2ccc3c(N)ncnc32)[C@H](O)[C@@H]1O` [Compound 59c, (2R,3R,4S,5S)-2-(4-Amino-7H-pyrrolo[2,3-d]pyrimidin-7-yl)-5-((((5-methyl-3-phenylisothiazol-4-yl)methyl)thio)methyl)tetrahydrofuran-3,4-diol], the IC50 was 30 to 100 nM.

Regarding `Cc1noc(-c2ccccc2)c1CSC[C@H]1O[C@@H](n2cc(F)c3c(N)ncnc32)[C@H](O)[C@@H]1O` [Compound 128, (2R,3R,4S,5S)-2-(4-Amino-5-fluoro-7H-pyrrolo[2,3-d]pyrimidin-7-yl)-5-((((3-methyl-5-phenylisoxazol-4-yl)methyl)thio)methyl)tetrahydrofuran-3,4-diol], the IC50 was in the range of 100 to 500 nM.

Turning to `Cc1ccc(-c2onc(C)c2CSC[C@H]2O[C@@H](n3cc(-c4ccc(C#N)cc4)c4c(N)ncnc43)[C@H](O)[C@@H]2O)cc1C` [Compound 235b, 4-(4-Amino-7-((2R,3R,4S,5S)-5-((((5-(3,4-dimethylphenyl)-3-methylisoxazol-4-yl)methyl)thio)methyl)-3,4-dihydroxytetrahydrofuran-2-yl)-7H-pyrrolo[2,3-d]pyrimidin-5-yl)benzonitrile], the IC50 lay in the range of 30 to 100 nM.

Consider `Cc1noc(-c2ccccc2)c1CSC[C@H]1O[C@@H](n2cc(-c3ccc4ccccc4c3)c3c(N)ncnc32)[C@H](O)[C@@H]1O` [Compound 148b, (2R,3R,4S,5S)-2-(4-Amino-5-(naphthalen-2-yl)-7H-pyrrolo[2,3-d]pyrimidin-7-yl)-5-((((3-methyl-5-phenylisoxazol-4-yl)methyl)thio)methyl)tetrahydrofuran-3,4-diol], for which the IC50 was 100 to 500 nM.

As to `Cc1ncnc(-c2ccccc2)c1CSC[C@H]1O[C@@H](n2cc(-c3ccc(C#N)cc3)c3c(N)ncnc32)[C@H](O)[C@@H]1O` [Compound 232b, 4-(4-Amino-7-((2R,3R,4S,5S)-3,4-dihydroxy-5-((((4-methyl-6-phenylpyrimidin-5-yl)methyl)thio)methyl)tetrahydrofuran-2-yl)-7H-pyrrolo[2,3-d]pyrimidin-5-yl)benzonitrile], the IC50 was in the range of 30 to 100 nM.

With `Cc1noc(-c2ccccc2)c1CSC[C@H]1O[C@@H](n2cc(CC(C)C)c3c(N)ncnc32)[C@H](O)[C@@H]1O` [Compound 131b, (2R,3R,4S,5S)-2-(4-Amino-5-isobutyl-7H-pyrrolo[2,3-d]pyrimidin-7-yl)-5-((((3-methyl-5-phenylisoxazol-4-yl)methyl)thio)methyl)tetrahydrofuran-3,4-diol], the IC50 fell in the range of 100 to 500 nM.

Take `Cn1c(-c2ccccc2)nc(-c2ccccc2)c1CSC[C@H]1O[C@@H](n2ccc3c(N)ncnc32)[C@H](O)[C@@H]1O` [Compound 120c, (2R,3R,4S,5S)-2-(4-Amino-7H-pyrrolo[2,3-d]pyrimidin-7-yl)-5-((((1-methyl-2,4-diphenyl-1H-imidazol-5-yl)methyl)thio)methyl)tetrahydrofuran-3,4-diol]: the IC50 lay in the range of 30 to 100 nM.

With `Cc1noc(-c2ccc(F)cc2)c1CSC[C@H]1O[C@@H](n2ccc3c(N)ncnc32)[C@H](O)[C@@H]1O` [Compound 97c, (2R,3R,4S,5S)-2-(4-Amino-7H-pyrrolo[2,3-d]pyrimidin-7-yl)-5-((((5-(4-fluorophenyl)-3-methylisoxazol-4-yl)methyl)thio)methyl)tetrahydrofuran-3,4-diol], the IC50 fell in the range of 100 to 500 nM.

With `Cc1noc(-c2ccccc2)c1CSC[C@H]1O[C@@H](n2cc(-c3ccc4nc[nH]c4c3)c3c(N)ncnc32)[C@H](O)[C@@H]1O` [Compound 151, (2R,3R,4S,5S)-2-(4-Amino-5-(1H-benzo[d]imidazol-6-yl)-7H-pyrrolo[2,3-d]pyrimidin-7-yl)-5-((((3-methyl-5-phenylisoxazol-4-yl)methyl)thio)methyl)tetrahydrofuran-3,4-diol], the IC50 was in the range of 30 to 100 nM.

Broadly, the IC50 is the concentration that inhibits the measured activity by half.
